Data taken from paper PMC11233931, “Remodeling tumor‐associated macrophage for anti‐cancer effects by rational design of irreversible inhibition of mitogen‐activated protein kinase‐activated protein kinase 2” (MedComm, 2024).

Experiments:
MK2 [1] = target: T1, MK2 (Homo sapiens, UniProt P49137); test: MK2 kinase inhibition assay (ADP-Glo); format: biochemical; conditions: for IC50: mean ± SD of two independent tests
Description: To assess the impact of various compounds on MK2 kinase activity, we utilized the ADP‐Glo Assay Kit (Promega) following the manufacturer's instructions. Luminescence measurements were taken using a SpectraMax Paradigm reader. The inhibition percentage was calculated using the following formula: ((specific signalDMSO control − specific signal inhibitor)/(specific signalDMSO control)) × 100%. The IC50 values were determined employing dose–response curve fitting via Prism (Graph Pad).

p38α-MK2 complex = test system: p38α-MK2 complex; design: method as in PMID 29549113; conditions: cited from earlier work
MK2 [2] = target: T1, MK2; test: Kinase kinetic analysis of irreversible inhibition (Mobility Shift Assay, preincubation then 100-fold dilution); format: biochemical; conditions: preincubation at 100 times the IC50, monitored continuously
Text: To assess its role as an irreversible MK2 kinase inhibitor, we conducted a kinetic study on compound 11. The well‐known reversible ATP‐competitive MK2 inhibitor, PF‐3644022, served as a negative control. […] The kinase‐inhibitor mixture was subsequently diluted by a factor of 100 with a reaction buffer that included both substrate peptide and ATP. Under these circumstances, the activity of MK2 kinase was continuously monitored by assessing the phosphorylated substrate percentage. […] The enzyme activity curve almost overlapped with the curve of background group, which included only the substrate peptide without inhibitors and MK2 kinase.
In the kinase kinetic analysis to elucidate the irreversible inhibition of MK2 by compound 11, a Mobility Shift Assay was conducted. […] The EZ Reader (Caliper Life Sciences, MA) was then used to assess the kinase activity of the mixture, which was monitored continuously for 1 hour.

[3] = test system: p-Hsp27 (Ser82) and p-MK2 (T334) in THP-1 derived macrophages; test: Western blot of MK2 signaling in LPS-stimulated THP-1 derived macrophages; format: cell-based, human; conditions: 1 h preincubation, LPS 100 ng/mL 30 min
Description: (§1) FIGURE 4 Targeting cellular MK2 signaling with irreversible inhibition by compound 11. (A and B) RT‐PCR analysis of IL‐1β, TNF‐α, and IL‐6 expression in Lipopolysaccharides (LPS)‐stimulated THP‐1 (A) and RAW264.7 (B) Cells, with pre‐treatment of compound 11 for 3 h followed by LPS (3 h) stimulation. (C) The inhibitory effects of compound 11 on TNF‐α and IL‐6 production in LPS‐stimulated RAW264.7 macrophages for 24 h, measured by ELISA. (D and E) Compound 11, alongside CC‐99677 and PF‐3644022, suppressed MK2 pathway activation, validated through western blot analysis post‐LPS stimulation. Cells were preincubated with the specified compounds for 1 h prior to LPS stimulation (100 ng/mL, 30 min). (F) Distinguishes the mode of action between compound 11 and CC‐99677. The complex structure of a small molecule and MK2 (3R2Y) with the same parent nucleus as compound 11 is shown in cyans, and the complex structure of a small molecule and MK2 (3FYJ) with the same parent nucleus as CC‐99677 is shown in orange. (G–I) The effect of indicated inhibitor on Hsp27 phosphorylation following inhibitor washout. Cells were pretreated with indicated compounds for 1 h and then washed to remove free compound and incubated for a further indicated time before activation with LPS. In (A–C), LPS (100 ng/mL) served as the stimulation control, while untreated cells were the baseline control. The data represent as mean ± SD from triplicates, with statistical analysis conducted via one‐way analysis of variance (ANOVA) (^## p < 0.01, ^### p < 0.001 vs. stimulation control; ^***p < 0.001 vs. baseline control).
Next, the efficacy of compound 11 in cellular MK2 signaling inhibition was evaluated by examining both p‐MK2 and p‐Hsp27 at Ser82 levels, the latter being a direct downstream substrate of p‐MK2. […] We try to explore this interesting phenomenon by superimposing the complex crystal structure (3FYJ) that harboring the same skeleton as CC‐99677 (Figure 4F). […] In that way, CC‐99677 binding to MK2 kinase after pre‐incubation with cells and after LPS stimulation may cause the difference in the spatial conformation of MK2 kinase domain, which may make p38 cannot properly bind to MK2, resulting in a decrease in the phosphorylation of MK2.
After the treatment outlined in the figure legends, cells were lysed using 1× sodium dodecyl sulfate (SDS) solution. The lysates were then subjected to SDS‐polyacrylamide gel electrophoresis for separation, followed by transferring onto nitrocellulose membranes. […] Protein bands were detected using an enhanced chemiluminescence detection reagent (Thermo Fisher Scientific).

p-Hsp27 = test: Cellular washout assay, p-Hsp27 by western blot; format: cell-based; conditions: 1 h pretreatment, then LPS
Description: as §1
Furthermore, to validate the irreversible mechanism of action of compound 11 at the cellular level, we performed a cellular washout assay and assessed p‐Hsp27 levels. The established MK2 irreversible inhibitor CC‐99677 served as positive control, while the reversible ATP‐competitive inhibitor PF‐3644022 was used as negative control. […] In contrast, only 1 h after PF‐3644022 washout, p‐Hsp27 level was totally recovered (Figure 4I).
After the treatment outlined in the figure legends, cells were lysed using 1× sodium dodecyl sulfate (SDS) solution. The lysates were then subjected to SDS‐polyacrylamide gel electrophoresis for separation, followed by transferring onto nitrocellulose membranes. The membranes were incubated with primary antibodies specific to phospho‐MK2, phospho‐Hsp27, MK2, Hsp27, GAPDH, and β‐actin (Cell Signaling Technology), followed by horseradish peroxidase‐conjugated anti‐mouse or anti‐rabbit IgG secondary antibodies. Protein bands were detected using an enhanced chemiluminescence detection reagent (Thermo Fisher Scientific).

MK2 [4] = test system: MK2; design: method as in PMID 12147348, PMID 35691544; conditions: cited from earlier work

T1 sequence (P49137 whole entry): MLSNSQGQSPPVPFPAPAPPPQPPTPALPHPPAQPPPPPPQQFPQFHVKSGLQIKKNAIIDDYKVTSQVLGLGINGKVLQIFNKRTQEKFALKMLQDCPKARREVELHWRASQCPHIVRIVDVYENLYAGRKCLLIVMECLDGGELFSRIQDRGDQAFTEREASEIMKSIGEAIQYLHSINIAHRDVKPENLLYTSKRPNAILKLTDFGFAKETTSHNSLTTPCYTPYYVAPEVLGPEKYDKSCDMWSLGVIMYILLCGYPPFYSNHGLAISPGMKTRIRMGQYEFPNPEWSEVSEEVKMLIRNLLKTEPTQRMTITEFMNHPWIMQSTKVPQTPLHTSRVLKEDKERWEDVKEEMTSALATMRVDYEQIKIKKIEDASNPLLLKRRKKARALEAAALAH

| SMILES | IC50 (MK2 [1]) | also measured |
| --- | --- | --- |
| C=CC(=O)Nc1cc(-c2cc(-c3cc4c([nH]3)CCNC4=O)ccn2)ccc1C [compound 7] | 285 ± 97.5 nM | – |
| C=CC(=O)Nc1cc(C)cc(-c2cc(-c3cc4c([nH]3)CCNC4=O)ccn2)c1 [compound 6] | 89.5 ± 15.3 nM | – |
| Cc1cnc(-c2ccnc(C(C)(C)O)n2)cc1-n1c(C)cc(OCc2ncc(F)cc2F)c(Cl)c1=O [ATI-450] | – | potency for the p38α-MK2 complex relative to p38α-PRAK or p38α-ATF2 (p38α-MK2 complex): over 700 fold |
| C=CC(=O)Nc1cc(OC)cc(-c2cc(-c3cc4c([nH]3)CCNC4=O)ccn2)c1 [compound 4] | 452 ± 45.3 nM | – |
| C=CC(=O)Nc1cc(-c2cc(-c3cc4c([nH]3)CCNC4=O)ccn2)ccc1N(C)C [compound 13] | 113 ± 3.5 nM | – |
| C=CC(=O)Nc1cccc(-c2cc(-c3cc4c([nH]3)CCNC4=O)ccn2)c1 [compound 2] | 728 nM | – |
| C=CC(=O)Nc1cc(-c2cc(-c3cc4c([nH]3)CCNC4=O)ccn2)cc(N(C)C)c1 [compound 12] | 121 ± 26.1 nM | – |
| Cc1ccc(-c2ccc3c(ccc4sc5c(c43)NC[C@@H](C)NC5=O)n2)cn1 [PF-3644022, reference compound] | 12.3 ± 1.3 nM | MK2 kinase activity after 30 min preincubation with inhibitor and 100-fold dilution (MK2 [2]): recovered gradually; effect on MK2 phosphorylation at T334 site [3]: inhibited; time after inhibitor washout at which p-Hsp27 level recovered (p-Hsp27): 1 h |
| CCC(=O)Nc1cccc(-c2cc(-c3cc4c([nH]3)CCNC4=O)ccn2)c1 [compound 3] | – | inhibition at 1 µM (MK2 [1]; read-out: inhibition of MK2 at 1 μM, 1 μM, inhibitory rate of two independent tests): ~30% |
| C=CC(=O)Nc1cc(-c2cc(-c3cc4c([nH]3)CCNC4=O)ccn2)ccc1OC [compound 5] | 36.9 ± 20.1 nM | – |
| C=CC(=O)Nc1cc(-c2cc(-c3cc4c([nH]3)CCNC4=O)ccn2)ccc1C(F)(F)F [compound 9] | 52.1 ± 0.3 nM | – |
| C=CC(=O)Nc1cc(-c2cc(-c3cc4c([nH]3)CCNC4=O)ccn2)cc(C(F)(F)F)c1 [compound 8] | 217 ± 4.8 nM | – |
| CCOCc1cnc(Cl)nc1Oc1ccc2c(ccc3sc4c(c32)NC[C@@H](C)NC4=O)n1 [CC-99677, reference compound] | – | effect on MK2 phosphorylation at T334 site [3]: inhibited; time after inhibitor washout at which p-Hsp27 level recovered (p-Hsp27): 12 h |
| Nc1ncnc2c1ncn2[C@@H]1O[C@H](COP(=O)(O)OP(=O)(O)OP(=O)(O)O)[C@@H](O)[C@H]1O [ATP] | – | ATP binding affinity to MK2 (MK2 [4]): approximately 30 µM |
| C=CC(=O)Nc1cc(OC(F)(F)F)cc(-c2cc(-c3cc4c([nH]3)CCNC4=O)ccn2)c1 [compound 10] | 212 ± 8.3 nM | – |
